Source: patent US10058619B2, “P97-polynucleotide conjugates” (biOasis Technologies, Inc., priority 2014, dated 2018)

Assays:
[1] = Brain delivery of AF680-labeled test molecules after IV injection, 3D confocal microscopy of brain sections; format: in vivo, Balb/c mice
Method: Test molecules were intravenously injected (via tail vein) in Balb/c mice and 1 hour later the animals were sacrificed as follows: Prior to euthanasia, mice were injected (i.v.) with tomato Lectin-Texas Red ([…]) for 10 min to stain the brain vasculature. Blood was cleared by intracardiac perfusion of 10 ml heparinized saline (1 ml/min). Brains were excised and frozen on dry ice and stored at −80° C. Brains were mounted in Tissue Tek and sectioned ([…], 3 sections/brain) with a cryostat at −2° C. Sections (n=3/brain) were mounted on Superfrost Plus microscope slides, fixed in cold Acetone/MeOH (1:1) for 10 min at RT, and then washed with PBS. Glass coverslips were mounted on sections using Prolong Gold antifade reagent with DAPI (Molecular probes, P36931). 3D confocal microscopy was performed (4 random fields per section were captured).
Signals for all the sections were calibrated with respect to the PBS control group in order to observe only minimal (but not completely null) AF680 fluorescent signal in those sections (see FIG. 4A).

[2] = tested on: mouse model of middle cerebral artery occlusion (MCAO); experiment: Infarct volume analysis (TTC staining) in mouse model of middle cerebral artery occlusion (MCAO); format: in vivo, C57/Bl6 mice; details: pretreated 3 times with 30 mg/kg IV, 1 hour MCAO, 24 hours post reperfusion
Method: The NOX4 gene-targeted p97-siRNA conjugates from Example 1 were tested for their ability to provide neuroprotection in a mouse model of middle cerebral artery occlusion (MCAO) (see, e.g., Chang et al., J Vis Exp. 2761:2011; Althenhöfer et al., Cell. Mol. Life Sci. 69:2327-2343, 2012; and Kleinschnitz et al., PLoS Biol. 8(9):e1000479, 2010).
C57/Bl6 mice were pretreated 3 times (1 hour interval between each injection) with either PBS or 30 mg/kg of siRNA alone or p97-siRNA via intravenous (IV) injection. Animals were subjected to stroke via MCAO about 1 hour following the last injection, as follows. The external and internal carotid arteries (ECA and ICA, respectively) were dissected and isolated and the common carotid artery (CCA) ligated. An […] 8-0 nylon thread coated in dental silicone was inserted into a small hole in the ECA towards the bifurcation of the CCA. […]
When the TTC staining was completed, infarct size was measured by a colorimetric staining method. […]
Absorbance was measured at 485 nm in a spectrophotometer and the values were averaged. Percentage loss in brain TIC staining in the ischemic side of the brain was compared with the contralateral side of the brain of the same animal using the following equation: % loss=100×(1−absorbance of ischemic hemisphere/absorbance of contralateral hemisphere)

Substance: siRNA^AF680: negative control: unconjugated NOX4 antisense strand annealed to the AF680-labeled sense strand (antisense AUGUUCACAAAGUCAGGUCTT; sense GACCUGACUUUGUGAACAUTT; sense strand linked to Alexa Fluor 680 via linker, end not given here, further chemistry not given here)
- AF680 signal in the vasculature ([1]; 10.0 mg/kg IV via tail vein, 1 h, Balb/c mice, brain sections): no AF680 signal was observed
- perinuclear AF680 signal in the brain parenchyma ([1]; 10.0 mg/kg IV via tail vein, 1 h, Balb/c mice, signals calibrated to PBS control): not detected
- AF680 (red) staining in brain tissues (immunofluorescence imaging, FIGS. 4A-4D) ([1]; mice, following intravenous administration): no AF680 (red) staining
- infarct areas / infarct volume in the brain [2]: large infarct areas
